Reference: article PMC12040169 (PLOS Biology, 2025)

Experiment: in vitro
Conditions: human, hela cells, % viability

Row | SMILES | viability at 28.5 h, 10 µM [%] | viability at 28.5 h, 10 µM (bulk resorufin, single well) [%]
1 | CCOC(=O)Cc1csc(NS(=O)(=O)c2cc(C)c(Cl)cc2Cl)n1 [CBK012872] | 91.3 | –
2 | O=C1CCC(=O)N1 [CBK073851] | 88.7 | –
3 | COCC(=O)N[C@H]1CCN2C(=O)c3cc(-c4cccc(C)c4C)ccc3NC(=O)[C@@H]2C1 [CBK289562] | 90.7 | –
4 | O=C(NCCc1c[nH]c2ccc(Cl)cc12)c1ccc(Cl)cc1Br [CBK159755] | 96.3 | –
5 | O=C(O)CSc1nc2c(-c3ccco3)c3c(nc2o1)CCCC3 [CBK269266] | 104 | –
6 | CC1=CC(C)C(COC(N)=O)(COC(N)=O)C(C)C1 (centres unmarked) [CBK020974] | – | 93.7
7 | CCn1c(SC(C)C(N)=O)nc2ccc(Br)cc2c1=O (centres unmarked) [CBK306424] | 74.6 | –
8 | COc1ccc2cc(CN(CCNC(=O)OC(C)(C)C)C(=O)NC3CCCCC3)c(=O)[nH]c2c1 [CBK132074] | 101 | –
9 | Nc1nonc1C(=O)NCCNc1ccc([N+](=O)[O-])cn1 [CBK268279] | 97.7 | –
10 | Oc1ccc(NCc2ccc(OCc3cccs3)cc2)cc1 [CBK266586] | 89 | –
11 | O=C1N(C2CCCCC2)CC2C(c3ccccc3)ONC12O (centres unmarked) [CBK021700] | 97 | –
12 | Nc1nc(=O)n([C@H]2C[C@@H](O)[C@@H](CO)O2)cc1Br [CBK201161] | 97.1 | –
13 | CC(C)c1nc(C2CCCN(c3ncc(C#N)cc3Cl)C2)no1 (centres unmarked) [CBK304128] | 111 | –
14 | Cn1c(=O)c2c(nc(N3CCN(c4cccc(Cl)c4)CC3)n2CC(=O)O)n(C)c1=O [CBK286803] | 87.7 | –
15 | O=C(O)C(Cc1c[nH]c2ccccc12)N1C(=O)C2C3c4ccccc4C(c4ccccc43)C2C1=O (centres unmarked) [CBK265377] | 91.4 | –
16 | CC(C)c1ccc(S(=O)(=O)N2CCN(c3ccc(C#N)cc3)CC2)cc1 [CBK044404] | 97.3 | –
17 | Cc1nc(C2CCN(C(=O)c3ccn(C)n3)CC2)c2sccn12 [CBK285202] | 93.4 | –
18 | CC1CNCCN1C(=O)c1ccnc(N2CCN(C)CC2)c1 (centres unmarked) [CBK304122] | 88.6 | –
19 | Clc1ccccc1-c1nccnc1NCc1cccs1 [CBK037362] | 98.6 | –
20 | Cc1cc(CN2CCN(S(=O)(=O)c3ccc(-c4ccccc4)cc3)CC2)cc(C)c1O [CBK062747] | 115 | –
21 | CCCC(=O)c1ccc(S(=O)(=O)N2CCN(CCCOC3CCCCO3)CC2)cc1 (centres unmarked) [CBK062858] | 96.6 | –
22 | O=C(CNC(=O)c1ccco1)Nc1cccc(-c2nc3ccccc3s2)c1 [CBK295142] | 85.4 | –
23 | O=C(O)c1ccc(CNC(=S)Nc2ccc([N+](=O)[O-])cc2)cc1 [CBK267037] | 92.9 | –

Row | SMILES | viability at 28.5 h, 10 µM [%] | viability at 28.5 h, 10 µM (bulk resorufin, single well) [%]
24 | O=C(O)CCc1nn2c3ccccc3nc2n(-c2ccccc2)c1=O [CBK267520] | 90.6 | –
25 | CC(C)Cn1cnc2c(Cl)nc3ccccc3c21 [CBK017530] | 86.4 | –
26 | Cc1cc(C[C@@H]2COC[C@H]2NCc2ccc(C)c(C)c2)on1 [CBK284883] | 106 | –
27 | Cc1ccc(-c2ccc(N3CCN(C(=O)c4ccco4)CC3)nc2)cc1C [CBK037775] | 106 | –
28 | Cc1ccc(C2=NN(C(=N)SC3CC(=O)N(c4ccc(C(=O)O)cc4)C3=O)C(c3ccc(Cl)cc3)C2)cc1 (centres unmarked) [CBK262472] | 91.5 | –
29 | Nc1ncc(-c2cncnc2)nc1NCc1ccccc1 [CBK063584] | 103 | –
30 | O=C(N/N=C/c1cccnc1)c1cccc(F)c1 [CBK261689] | 101 | –
31 | CC(=O)Nc1ccc(C(=O)N2CCC(c3cccc(Cc4ccccc4Cl)n3)CC2)cc1 [CBK286111] | 96.2 | –
32 | O=C(Nc1ccncc1)c1ccc(N2C(=O)c3ccccc3C2=O)cc1 [CBK287803] | 113 | –
33 | Cc1cc(COc2nccnc2OC2CCN(CC(=O)Nc3c(C)cccc3C)CC2)no1 [CBK082958T] | 103 | –
34 | O=C(NCC1(CCO)CCOC1)c1c[nH]nc1-c1cc2ccccc2o1 (centres unmarked) [CBK305492] | 103 | –
35 | COc1ccc(CCCC(=O)Nc2ccc(N3CCNCC3)c3ccccc23)cc1OC [CBK028406T] | 105 | –
36 | CC(=O)c1cc(CN2CCCOC(Cn3cccn3)C2)cs1 (centres unmarked) [CBK307365] | 84.3 | –
37 | Cc1c(Br)c(C(F)(F)F)nn1CC(=O)NCCN1CCOCC1 [CBK018700] | 107 | –
38 | CCN1CCN(Cc2c(C)nc3ccc(C)cc3c2O)CC1 [CBK263699] | 89.8 | –
39 | CC1CCc2nn(CCNC(=O)c3cccs3)c(=O)cc2C1 (centres unmarked) [CBK284483] | 97.4 | –
40 | O=C(Nc1cccc(-c2nnn[nH]2)c1)c1ccc(Cl)c(Cl)c1 [CBK144713] | 89.3 | –
41 | COc1ccc(C)cc1NC(=O)NC1CCN(Cc2ccccc2)CC1 [CBK267095] | 99.2 | –
42 | CCNC(=O)N1CC2(CCN(Cc3nc4ccccc4[nH]3)CC2)c2ccccc21 [CBK126693] | 98 | –
43 | O=C(O)c1cc(-c2cc(Cl)ccc2Cl)nc2ccccc12 [CBK265391] | 96.1 | –
44 | CN(C)c1ccc(/C=C2/C(=N)N3N=C(c4ccccc4Cl)SC3=NC2=O)cc1 [CBK097554] | 94.6 | –
45 | CCn1c(=O)n(CCC(=O)NC(C(N)=O)c2ccccc2)c2ccccc21 (centres unmarked) [CBK295196] | 89.7 | –
46 | CS(=O)(=O)c1ccc(-n2nnnc2CN2CCC3(CCCCC3)C2)cc1 [CBK306183] | 91.1 | –

Row | SMILES | viability at 28.5 h, 10 µM [%] | viability at 28.5 h, 10 µM (bulk resorufin, single well) [%]
47 | NC(=O)C1(N2CCCCC2)CCN(Cc2nc(O)c3ccccc3n2)CC1 [CBK265896] | 103 | –
48 | COCC(=O)N[C@H]1C[C@H]2C(=O)Nc3ccc(-c4ccsc4)cc3C(=O)N2C1 [CBK289360] | 96.6 | –
49 | CN(C)c1ccc(/C=C/c2noc(-c3ccccc3O)n2)cc1 [CBK268438] | 109 | –
50 | Cc1cc(NS(=O)(=O)c2cnn(-c3ccccc3)c2C)n(C)n1 [CBK067252] | 107 | –
51 | Cc1[nH]c2cccc(C(=O)N3CCOC(C)(C(=O)NC4CCCC4)C3)c2c1C (centres unmarked) [CBK285800] | 87.3 | –
52 | Cc1cccc(C)c1NC(=O)Nc1ccc(F)cc1F [CBK300526] | 90.2 | –
53 | Cc1cc(C)n(CC(C)CNC(=O)Cc2csc(C(C)(C)C)n2)n1 (centres unmarked) [CBK305340] | 96.1 | –
54 | Cc1ccc(C)c(C2CCCN2C(=O)C2CN(C(=O)C3CCN(C)CC3)C2)c1 (centres unmarked) [CBK286022] | 97.5 | –
55 | CSCc1nnc(SCCC(=O)N2CCN(c3ccc(F)cc3)CC2)o1 [CBK240463] | 93.2 | –
56 | Cn1c(CSCc2ccccc2F)nnc1SCC(=O)c1ccc(Br)cc1 [CBK269143] | 92.3 | –
57 | Cc1nnc(Sc2ccc([N+](=O)[O-])cc2Cl)n1Cc1ccccc1 [CBK269694] | 102 | –
58 | c1ccc([C@@H]2CN(Cc3ccncc3)C[C@H]2c2cc[nH]n2)cc1 [CBK285161] | 88 | –
59 | COC(=O)c1sc2ncccc2c1NS(=O)(=O)c1ccc(C(F)(F)F)cc1[N+](=O)[O-] [CBK049969] | 95.4 | –
60 | COC(=O)c1c(C)oc2cc(Br)c(OCC(=O)c3ccc(Cl)cc3)cc12 [CBK264946] | 83.5 | –
61 | Nc1ncnc2c1ncn2CCN1CCOCC1 [CBK269049] | 104 | –
62 | N#CCCn1cc(C(=O)N2CCOCC2)c(-c2cccc(Cl)c2)n1 [CBK306208] | 88.2 | –
63 | CCN(CC)C(=O)c1cnoc1-c1ccc(Br)cc1 [CBK153725] | 94.4 | –
64 | CN(CCc1ccncc1)C(=O)c1[nH]nc2c1CCCCC2 [CBK283151] | 96.9 | –
65 | COc1ccc(CCCC(=O)N2CCN(c3ccccc3OC)CC2)cc1OC [CBK091495] | 87.1 | –
66 | COc1cc2c(cc1NC(=O)c1cccc([N+](=O)[O-])c1)oc1ccccc12 [CBK262958] | 94.4 | –
67 | O=c1[nH]c2ncc(-c3ccncc3)nc2n1CC1CC1 [CBK064539] | 90 | –
68 | Cc1cc(C)cc(NC(=O)c2ccccc2NS(=O)(=O)c2ccc(F)c(F)c2F)c1 [CBK113886] | 89.1 | –
69 | CNC(=O)c1cc(S(=O)(=O)N(C2CC2)C2CCc3ccccc32)cn1C (centres unmarked) [CBK305988] | 106 | –

Row | SMILES | viability at 28.5 h, 10 µM [%] | viability at 28.5 h, 10 µM (bulk resorufin, single well) [%]
70 | O=S(=O)([O-])CCC[n+]1c(/C=C/Nc2ccccc2)oc2ccc3ccccc3c21 [CBK261082] | 114 | –
71 | O=C(NC1CC2CCC(C1)N2Cc1ccccc1)c1cccc(Cl)c1 (centres unmarked) [CBK116291] | 95.4 | –
72 | Cn1c(=O)c(-c2ccccc2)nc2ccccc21 [CBK016192] | 143 | –
73 | COC(=O)c1ccc(OCc2nnn[nH]2)cc1 [CBK269544] | 88.7 | –
74 | Cc1ccc(C2=CCN(CC(=O)NC3CCCC3)CC2)o1 [CBK283605] | 92 | –
75 | O=C(c1ccco1)N1CCCC(n2cnc3cc(F)ccc32)C1 (centres unmarked) [CBK284475] | 94.8 | –
76 | Cc1ccc2nsnc2c1NC(=O)COc1ccccc1F [CBK269420] | 105 | –
77 | COc1cccc(CSc2ccc(CN3CCOCC3)cc2F)c1 [CBK174976] | 87.1 | –
78 | Cc1cc(CNCc2c(C(C)C)nn(C)c2N(C)C)no1 [CBK304855] | 97 | –
79 | CCN(CC)C(=O)CN1CCCN(c2cc(OCc3cc(C)on3)ncn2)CC1 [CBK083337T] | 97 | –
80 | CN1CCN(C(=O)COc2ccc(S(=O)(=O)Nc3ccc(Cl)cc3)cc2)CC1 [CBK268248] | 102 | –
81 | COc1ccccc1C(=O)CN1CCC2(CC1)OCCc1c2[nH]c2ccc(F)cc12 [CBK040238] | 97.6 | –
82 | COCCn1c(Cc2ccccc2)nnc1SCc1ccc2ccccc2c1 [CBK265985] | 96.6 | –
83 | CCSCCN1CCC(Oc2nccnc2OCc2ccc(Br)cc2F)CC1 [CBK161087] | 98.7 | –
84 | O=C(NCC1(c2ccccc2)CCC1)C1CCCN(C(=O)c2ccoc2)C1 (centres unmarked) [CBK296670] | 85.6 | –
85 | CCc1cc2c(NCc3ccccc3)ncnc2s1 [CBK057944] | 91.4 | –
86 | CCCCc1ccc(S(=O)(=O)Nc2nccnc2-c2cccs2)cc1 [CBK050770] | 90.4 | –
87 | COc1ccc(N2CCN(c3cc(-c4cccc(NC(C)=O)c4)ncn3)CC2)cc1OC [CBK091029] | 96.4 | –
88 | c1cnn(CCCNc2nc3nonc3nc2N2CCCCCC2)c1 [CBK307318] | 110 | –
89 | CC(C)(CNC(=O)Cn1cc(C(=O)NC2CCCCC2)ccc1=O)c1ccccc1F [CBK286099] | 89 | –
